In patent publication US11000056B2, “Bioactive serum fraction from achachairu (Garcinia humilis) which is free of benzophenone and proteins” (ISP Investments LLC, priority 2015, dated 2021):

Experiments:
IL-18 = assay: IL18/Baseline, skin sensitization potential in HEK; type: cell-based, human; conditions: HEK cultures, positive control
Procedure: It is possible for a test article to not be cytotoxic, and yet be unsafe due to provoking an allergic reaction upon skin contact. Typically, initial exposure to an allergen sensitizes the immune system, and following exposures cause an allergic response. […] We therefore evaluated IL-18 production in HEK treated with test articles to determine their sensitization potential.
Normal human adult epidermal keratinocytes (HEK) were cultured as described in Example 6 above. […] The cell lysates were collected, and IL-18 was quantified using Human IL-18 ELISA Kit (Catalog #7620, produced by MBL International Co., Woburn, Mass., USA). […] Fold changes of IL-18 levels between test articles and respective vehicle controls were calculated and compared to pPD (positive control). […]

[1] = laboratory animals; cited from earlier work
[2] = tested on: endocrine (androgenic/estrogenic) activity; conditions: cited from earlier work
[3] = oral and dermal routes; cited from earlier work

Nc1ccc(N)cc1 [benchmark sensitizer, para-phenylenediamine]
IL-18 induction compared to vehicle control (in words) (IL-18): significantly induced IL-18

COc1ccc(C(=O)c2ccccc2)c(O)c1 [BP-3, Benzophenone-3]
Hormonal activity (in words) [1]: weak hormonal activity
Anti-estrogenic activity (in words) [2]: anti-estrogenic activity
Anti-androgenic activity (in words) ([2]; receptor binding assay): strong anti-androgenic
Estrogenic activity (in words) ([2]; receptor binding assay): weak estrogenic
Absorption (in words) [3]: rapidly absorbed via oral and dermal routes
